Our source for the glass transition temperature values is the PolyMetriX glass transition set.

`*C#Cc1ccccc1C#C[SiH](*)c1ccccc1` (repeat unit) displayed a glass transition temperature of 71.00 °C.

`*C(=O)Nc1c(C)cc(Cc2cc(C)c(NC(=O)c3ccc4c(c3)C(=O)N(c3ccc(/N=N/c5ccc(OC(F)(F)F)cc5)c(N5C(=O)c6ccc(*)cc6C5=O)c3)C4=O)c(C)c2)cc1C` (repeat unit) had a glass transition temperature of 278.00 °C.

Compound `*C(=O)Nc1ccc(/N=N/c2ccc([N+](=O)[O-])cc2)c(NC(=O)c2ccc3c(c2)C(=O)N(c2c(C)cc(Cc4cc(C)c(N5C(=O)c6ccc(*)cc6C5=O)c(C)c4)cc2C)C3=O)c1` (repeat unit) gave a glass transition temperature of 264.00 °C.

With `*C(=O)OCC(C)(C)CS(=O)(=O)CC(C)(C)COC(=O)N1CC(C)N(*)CC1C` (repeat unit), the glass transition temperature was found to be 85.00 °C.

`*CC(=C)COCC(=C)COC(=O)O*` (repeat unit) yielded a glass transition temperature of 70.50 °C.

With `*CC(=O)NCCCCCCNC(=O)CO*` (repeat unit), the glass transition temperature worked out at 10.00 °C.

As for `*CC(=O)NCCCCCCNC(=O)Cc1ccc(O*)cc1` (repeat unit), the glass transition temperature worked out at 69.50 °C.

As to `*CC(C(C)C)C(COC(=O)c1ccc(C(=O)O*)cc1)C(C)C` (repeat unit), the glass transition temperature came to 65.00 °C.

Take `*CC(C)(C)CO*` (repeat unit): the glass transition temperature was -50.00 °C.

In the case of `*CC(C)(C)COC(=O)O*` (repeat unit), the glass transition temperature was 25.00 °C.

`*CC(C)(C)COC(=O)c1ccc(C(=O)O*)cc1` (repeat unit) had a glass transition temperature of 68.00 °C.

`*CC(C)(C)CS(=O)(=O)CC(C)(C)COC(=O)c1ccc(C(=O)O*)cc1` (repeat unit) yielded a glass transition temperature of 105.00 °C.

As for `*CC(C)(C)CS*` (repeat unit), the glass transition temperature was -49.30 °C.

Compound `*CC(C)(CC)COC(=O)c1ccc(-c2ccc(C(=O)O*)cc2)cc1` (repeat unit) gave a glass transition temperature of 99.00 °C.

`*CC(C)(CC)COC(=O)c1ccc(C(=O)O*)cc1` (repeat unit) displayed a glass transition temperature of 63.00 °C.

Take `*CC(C)(CC)CS*` (repeat unit): the glass transition temperature was -50.00 °C.

With `*CC(C)(CO*)COCC(F)(F)F` (repeat unit), the glass transition temperature is -41.00 °C.

Turning to `*CC(C)(CO*)COCCC#N` (repeat unit), the glass transition temperature was -52.00 °C.

Take `*CC(C)(CO*)COCCCCCCCCCCOc1ccc(-c2ccc(C#N)cc2)cc1` (repeat unit): the glass transition temperature is 7.00 °C.

In the case of `*CC(C)C(C)COC(=O)c1ccc(C(=O)O*)cc1` (repeat unit), the glass transition temperature worked out at 37.50 °C.

Turning to `*CC(C)CO*` (repeat unit), the glass transition temperature is -55.00 °C.

With `*CC(CC)(CC)COC(=O)c1ccc(-c2ccc(-c3ccc(C(=O)O*)cc3)cc2)cc1` (repeat unit), the glass transition temperature is -20.00 °C.

For `*CC(CC)(CC)CS*` (repeat unit), the glass transition temperature was -36.2 °C.

Take `*CC(CC)(CO)CO*` (repeat unit): the glass transition temperature was determined as 331.90 °C.

As for `*CC(CC)C(CC)COC(=O)c1ccc(C(=O)O*)cc1` (repeat unit), the glass transition temperature amounted to 32.00 °C.

Compound `*CC(CCC)C(CCC)COC(=O)c1ccc(C(=O)O*)cc1` (repeat unit) returned a glass transition temperature of 30.00 °C.

`*CC(CCCC)C(CCCC)COC(=O)c1ccc(C(=O)O*)cc1` (repeat unit): the glass transition temperature is 16.00 °C.

In the case of `*CC(CO)(CO)CO*` (repeat unit), the glass transition temperature turned out to be 99.00 °C.

In the case of `*CC(CO*)(CS(=O)(=O)C(C)C)CS(=O)(=O)C(C)C` (repeat unit), the glass transition temperature worked out at 91.00 °C.

The compound `*CC(CO*)(CS(=O)(=O)CCC)CS(=O)(=O)CCC` (repeat unit) had a glass transition temperature of 71.00 °C.

In the case of `*CC(CO*)(CS(=O)(=O)CCCC)CS(=O)(=O)CCCC` (repeat unit), the glass transition temperature worked out at 66.00 °C.

Compound `*CC(CO*)(CS(C)(=O)=O)CS(C)(=O)=O` (repeat unit) displayed a glass transition temperature of 126.00 °C.

For the compound `*CC(CO*)(CSC)CSC` (repeat unit), the glass transition temperature was -6.00 °C.

Consider `*CC(CO*)(CSCC)CSCC` (repeat unit), for which the glass transition temperature was -32.00 °C.

Turning to `*CC(CO*)(CSCCCCC)CSCCCCC` (repeat unit), the glass transition temperature was -33.00 °C.

For `*CC(CO*)C(C)(C)C` (repeat unit), the glass transition temperature was -4.00 °C.

Consider `*CC(COc1c(Cl)cc(C(C)(C)c2cc(Cl)c(O*)c(Cl)c2)cc1Cl)OC(C)=O` (repeat unit), for which the glass transition temperature came out at 100.00 °C.

With `*CC(COc1ccc(C(C)(c2ccccc2)c2ccc(O*)cc2)cc1)OC(C)=O` (repeat unit), the glass transition temperature is 110.00 °C.

As to `*CC(O)COc1ccc(Cc2ccc(O*)cc2)cc1` (repeat unit), the glass transition temperature stood at 143.20 °C.

`*CC(OC(=O)C(CC(C)C)NC(=O)OCc1ccccc1)C(COC(=O)O*)OC(=O)C(CC(C)C)NC(=O)OCc1ccccc1` (repeat unit): the glass transition temperature was 50.90 °C.

Turning to `*CC(OC(=O)Oc1ccc(C(=O)OC)cc1)C(COC(=O)O*)OC(=O)Oc1ccc(C(=O)OC)cc1` (repeat unit), the glass transition temperature came to 90.90 °C.

`*CC(OO*)c1ccc(C)cc1` (repeat unit) gave a glass transition temperature of 4.60 °C.

Compound `*CCC(C)Oc1ccc(-c2ccc(C(=O)OCC(C)COC(=O)c3ccc(-c4ccc(O*)cc4)cc3)cc2)cc1` (repeat unit) showed a glass transition temperature of 84.00 °C.

As to `*CCOCC(=O)O*` (repeat unit), the glass transition temperature is -12.60 °C.

On to `*CCSSCCOCO*` (repeat unit), for which the glass transition temperature is -57.50 °C.

The compound `*COC(=O)OCC1OC(C)(C)OC1*` (repeat unit) returned a glass transition temperature of 51.30 °C.

Consider `*COC(=O)OCC1OC(OCC)OC1*` (repeat unit), for which the glass transition temperature stood at 23.50 °C.

In the case of `*COC1OC(*)C(O)C(O)C1O` (repeat unit), the glass transition temperature came to 200.00 °C.

Turning to `*C[Si](*)(C)CCCCCC` (repeat unit), the glass transition temperature is -77.60 °C.

For the compound `*C[Si](*)(C)CCCn1c2ccccc2c2ccccc21` (repeat unit), the glass transition temperature is 71.20 °C.

`*C[Si](*)(CCC)CCC` (repeat unit): the glass transition temperature was -41.00 °C.

With `*C[Si](*)(CCCCCC)CCCCCC` (repeat unit), the glass transition temperature is -56.00 °C.

For the compound `*C[Si](C)(C)[Si](C)(C)[Si](C)(C)[Si](*)(C)C` (repeat unit), the glass transition temperature was -68.00 °C.

For `*Cc1ccc(CSSS*)cc1` (repeat unit), the glass transition temperature was 8.00 °C.

For `*Cc1ccc(C[n+]2ccc(-c3cc[n+](*)cc3)cc2)cc1` (repeat unit), the glass transition temperature stood at 95.00 °C.

For `*Cc1ccccc1CSS*` (repeat unit), the glass transition temperature is 39.00 °C.

The compound `*Cc1ccccc1C[n+]1ccc(-c2cc[n+](*)cc2)cc1` (repeat unit) gave a glass transition temperature of 70.50 °C.

In turn, `*Nc1cccc(NC(=O)c2cc(NC(=O)C(CCSC)N3C(=O)c4ccccc4C3=O)cc(C(*)=O)c2)c1` (repeat unit) displayed a glass transition temperature of 196.00 °C.

In the case of `*OC(C)COC(=O)c1ccccc1C(*)=O` (repeat unit), the glass transition temperature turned out to be 95.00 °C.

In turn, `*OC(C)COCC(C)OC(=O)c1ccccc1C(*)=O` (repeat unit) yielded a glass transition temperature of 25.00 °C.

The compound `*OC(COC(=O)c1cccc(C(*)=O)c1)COc1ccc(/N=N/c2ccc(C#N)cc2)cc1` (repeat unit) came in with a glass transition temperature of 119.00 °C.

On to `*OC(COC(=O)c1ccccc1-c1ccccc1C(*)=O)COc1ccc(/N=N/c2ccc(C#N)cc2)cc1` (repeat unit), for which the glass transition temperature was found to be 120.00 °C.

On to `*OC(COC(=O)c1ccccc1C(*)=O)COc1ccc(/N=N/c2ccc(C#N)cc2)cc1` (repeat unit), for which the glass transition temperature came out at 105.00 °C.

For `*Oc1ccc(C(=O)OCC(C)(C)COC(=O)c2ccc(*)cc2)cc1` (repeat unit), the glass transition temperature was found to be 73.00 °C.

In turn, `*Oc1ccc(S(=O)(=O)c2ccc(Oc3c(C)cc(Cc4cc(C)c(*)c(C)c4)cc3C)cc2)cc1` (repeat unit) gave a glass transition temperature of 232.00 °C.

Turning to `*c1c(C)cc(Cc2cc(C)c(N3C(=O)c4ccc(Oc5ccc(C(C)(C)c6ccc(Oc7ccc8c(c7)C(=O)N(*)C8=O)cc6)cc5)cc4C3=O)c(C)c2)cc1C` (repeat unit), the glass transition temperature was 247.00 °C.

Regarding `*c1c(C)cc(Cc2cc(C)c(N3C(=O)c4cccc(Oc5ccc(C(C)(C)c6ccc(Oc7cccc8c7C(=O)N(*)C8=O)cc6)cc5)c4C3=O)c(C)c2)cc1C` (repeat unit), the glass transition temperature was 223.00 °C.

Compound `*c1ccc(C(=O)NC(CC)COC(=O)c2ccc(N3C(=O)CC(SCCCCCSC4CC(=O)N(*)C4=O)C3=O)cc2)cc1` (repeat unit) gave a glass transition temperature of 91.00 °C.

The compound `*c1ccc(Oc2ccc(N3C(=O)c4ccc(Oc5c(C)cc(Cc6cc(C)c(Oc7ccc8c(c7)C(=O)N(*)C8=O)c(C)c6)cc5C)cc4C3=O)cc2)cc1` (repeat unit) registered a glass transition temperature of 266.00 °C.

Compound `*c1ccc2c(c1)C(=O)N(c1cc(C(=O)Nc3cccc4c(NC(=O)c5ccc(C)c(N6C(=O)c7ccc(C(*)(C(F)(F)F)C(F)(F)F)cc7C6=O)c5)cccc34)ccc1C)C2=O` (repeat unit) yielded a glass transition temperature of 250.00 °C.

On to `*c1ccc2c(c1)C(=O)N(c1ccc(OC(CCCCCC)COc3ccc(N4C(=O)c5ccc(C(*)(C(F)(F)F)C(F)(F)F)cc5C4=O)cc3)cc1)C2=O` (repeat unit), for which the glass transition temperature worked out at 182.00 °C.

The compound `*c1ccc2c(c1)C(=O)N(c1ccc(Oc3c(C)cc(Cc4cc(C)c(Oc5ccc(N6C(=O)c7ccc(C(*)(C(F)(F)F)C(F)(F)F)cc7C6=O)cc5)c(C)c4)cc3C)cc1)C2=O` (repeat unit) yielded a glass transition temperature of 298.00 °C.

`*c1cccc(N2C(=O)c3ccc(Oc4c(C)cc(Cc5cc(C)c(Oc6ccc7c(c6)C(=O)N(*)C7=O)c(C)c5)cc4C)cc3C2=O)c1` (repeat unit) yielded a glass transition temperature of 245.00 °C.
